ChEMBL document CHEMBL6153051, “Synthesis, biological evaluation and validation of IMB-881 derivatives as anti-Gram-negative bacterial agents” (Bioorg Med Chem, 2025)
pKd: −log10 of the molar value. Converted amounts (≈) assume the structure as drawn. The source made the active and inactive calls. The rule behind the calls is not given here.

How the values were obtained:
[1] = system: Acinetobacter baumannii; assay: Antibacterial activity against multi-drug resistant Acinetobacter baumannii 5 clinical isolate assessed as bacterial growth inhibition in presence of CAMHB medium by broth microdilution method; format: functional
[2] = system: Acinetobacter baumannii; assay: Antibacterial activity against multi-drug resistant Acinetobacter baumannii 2 clinical isolate assessed as bacterial growth inhibition in presence of CAMHB medium by broth microdilution method; format: functional
[3] = system: Escherichia coli; assay: Antibacterial activity against Escherichia coli ATCC 25922 assessed as bacterial growth inhibition in presence of CAMHB medium by broth microdilution method; format: functional
[4] = system: Klebsiella pneumoniae; assay: Antibacterial activity against Klebsiella pneumoniae ATCC […] assessed as bacterial growth inhibition in presence of CAMHB medium by broth microdilution method; format: functional
[5] = Cytotoxicity against green monkey Vero cells incubated for 48 hrs by CCK-8 assay; format: toxicity, cell-based; conditions: green monkey (Chlorocebus sabaeus)
[6] = system: Escherichia coli; assay: Antibacterial activity against Escherichia coli ATCC 25922 infected in Galleria mellonella assessed as increase in larvae survival rate at 10 mg/kg measured after 6 days post-inoculation relative to control; format: functional; conditions: ATCC 25922, 144 h, time 6 day
[7] = system: Escherichia coli; assay: Induction of outer membrane damage in Escherichia coli ATCC 25922 assessed as increase in EtBr fluorescence intensity in presence of LB medium incubated for 12 hrs by fluorescence plate-reader analysis; format: functional, organism-based
[8] = Binding affinity to His-tagged LptA (unknown origin) assessed as dissociation constant incubated for 60 to 120 s by BLI analysis
[9] = system: Acinetobacter baumannii; assay: Antibacterial activity against Acinetobacter baumannii ATCC 19606 assessed as bacterial growth inhibition in presence of CAMHB medium by broth microdilution method; format: functional
[10] = Inhibition of LptA /LptC (unknown origin) interaction expressed in yeast AH109 assessed as growth inhibition incubated for 48 hrs
[11] = system: Escherichia coli; assay: Antibacterial activity against Escherichia coli ATCC 25922 infected in Galleria mellonella assessed as increase in larvae survival rate measured upto 96 hrs; format: functional, organism-based; conditions: dose 1.25-10 mg/kg
[12] = system: Acinetobacter baumannii; assay: Antibacterial activity against multi-drug resistant Acinetobacter baumannii 4 clinical isolate assessed as bacterial growth inhibition in presence of CAMHB medium by broth microdilution method; format: functional
[13] = system: Saccharomyces cerevisiae; assay: Antimicrobial activity against yeast AH109 expressing T/53 assessed as growth inhibition incubated for 48 hrs; format: functional
[14] = system: Escherichia coli; assay: Antibacterial activity against Escherichia coli ATCC 25922 infected in Galleria mellonella assessed as increase in larvae survival rate at 1.25 mg/kg measured upto 96 hrs relative to control; format: functional
[15] = system: Escherichia coli; assay: Induction of morphological changes in Escherichia coli ATCC 25922 assessed as appearance of incomplete outer membrane in presence of LB medium incubated for 12 hrs by transmission electron microscopic analysis; format: functional, organism-based
[16] = system: Escherichia coli; assay: Induction of morphological changes in Escherichia coli ATCC 25922 assessed as cell elongation in presence of LB medium measured after 1 to 3 hrs by crystal violet staining based light microscopic analysis; format: functional, organism-based; conditions: time 1-3 hrs
[17] = system: Escherichia coli; assay: Antibacterial activity against multi-drug resistant Escherichia coli 3 clinical isolate assessed as bacterial growth inhibition in presence of CAMHB medium by broth microdilution method; format: functional
[18] = system: Escherichia coli; assay: Antibacterial activity against multi-drug resistant Escherichia coli 4 clinical isolate assessed as bacterial growth inhibition in presence of CAMHB medium by broth microdilution method; format: functional
[19] = Selectivity index, ratio of MIC for antimicrobial activity against yeast AH109 expressing T/53 to MIC for inhibition of LptA /LptC (unknown origin) interaction expressed in yeast AH109
[20] = Cytotoxicity against dog MDCK cells incubated for 48 hrs by CCK-8 assay; format: toxicity, cell-based; conditions: dog (Canis lupus familiaris)
[21] = system: Escherichia coli; assay: Antibacterial activity against multi-drug resistant Escherichia coli 2 clinical isolate assessed as bacterial growth inhibition in presence of CAMHB medium by broth microdilution method; format: functional
[22] = system: Escherichia coli; assay: Induction of morphological changes in Escherichia coli ATCC 25922 assessed as appearance of filamentous cell in presence of LB medium measured after 1 to 3 hrs by crystal violet staining based light microscopic analysis; format: functional, organism-based; conditions: time 1-3 hrs
[23] = system: Escherichia coli; assay: Antibacterial activity against ESBL(+) producing Escherichia coli ATCC 35218 assessed as bacterial growth inhibition in presence of CAMHB medium by broth microdilution method; format: functional
[24] = system: Acinetobacter baumannii; assay: Antibacterial activity against multi-drug resistant Acinetobacter baumannii 3 clinical isolate assessed as bacterial growth inhibition in presence of CAMHB medium by broth microdilution method; format: functional
[25] = system: Escherichia coli; assay: Antibacterial activity against multi-drug resistant Escherichia coli 1 clinical isolate assessed as bacterial growth inhibition in presence of CAMHB medium by broth microdilution method; format: functional
[26] = system: Acinetobacter baumannii; assay: Antibacterial activity against multi-drug resistant Acinetobacter baumannii 1 clinical isolate assessed as bacterial growth inhibition in presence of CAMHB medium by broth microdilution method; format: functional
[27] = system: Pseudomonas aeruginosa; assay: Antibacterial activity against Pseudomonas aeruginosa PAO1 assessed as bacterial growth inhibition in presence of CAMHB medium by broth microdilution method; format: functional
[28] = system: Escherichia coli; assay: Antibacterial activity against multi-drug resistant Escherichia coli 5 clinical isolate assessed as bacterial growth inhibition in presence of CAMHB medium by broth microdilution method; format: functional

| Compound | MIC [1] | MIC [2] | MIC [3] | MIC [4] | IC50 at 48 h [5] | pKd [8] | MIC [9] | MIC [10] | MIC [12] | MIC [13] | MIC [17] | MIC [18] | Selectivity Index [19] | IC50 at 48 h [20] | MIC [21] | MIC [23] | MIC [24] | MIC [25] | MIC [26] | MIC [27] | further results |
| --- | --- | --- | --- | --- | --- | --- | --- | --- | --- | --- | --- | --- | --- | --- | --- | --- | --- | --- | --- | --- | --- |
| Clc1ccc(CN2COc3c(cc(Cl)c4cccnc34)C2)cc1 | 6.25 µg/mL | 6.25 µg/mL | 6.25 µg/mL | 50 µg/mL | > 50 µg/mL | 7.26 | 3.12 µg/mL | 12.5 µg/mL (≈ 36.2 µM) | 12.5 µg/mL | 25 µg/mL (≈ 72.4 µM) | 50 µg/mL | 50 µg/mL | 2 | 47.8 µg/mL (≈ 138 µM) | 50 µg/mL | 25 µg/mL | 12.5 µg/mL | 50 µg/mL | 12.5 µg/mL | 25 µg/mL | survival at 10 mg/kg [6]: 80%; Activity [7]: Dose-dependent-effect; Activity [11]: Dose-dependent-effect; survival at 1.25 mg/kg [14]: 50%; Activity [15]: Active; Activity [16]: Active; Activity [22]: Active; MIC [28]: 50 µg/mL |
| Clc1cc2c(c3ncccc13)OCN(CCCc1ccccc1)C2 | 6.25 µg/mL | 12.5 µg/mL | 6.25 µg/mL | 100 µg/mL | > 50 µg/mL | 7.49 | 3.12 µg/mL | 6.25 µg/mL (≈ 18.4 µM) | 12.5 µg/mL | 25 µg/mL (≈ 73.8 µM) | 50 µg/mL | 50 µg/mL | 4 | 43.8 µg/mL (≈ 129 µM) | 50 µg/mL | 25 µg/mL | 12.5 µg/mL | 50 µg/mL | 6.25 µg/mL | 50 µg/mL | survival at 10 mg/kg [6]: 70%; Activity [7]: Dose-dependent-effect; Activity [11]: Dose-dependent-effect; survival at 1.25 mg/kg [14]: 60%; Activity [15]: Active; Activity [16]: Active; Activity [22]: Active; MIC [28]: 50 µg/mL |
| Clc1cc2c(c3ncccc13)OCN(CCc1ccccc1)C2 | 100 µg/mL | 100 µg/mL | 6.25 µg/mL | 100 µg/mL | 14.3 µg/mL (≈ 44.2 µM) | 8.83 | 3.12 µg/mL | 12.5 µg/mL (≈ 38.5 µM) | 100 µg/mL | 25 µg/mL (≈ 77 µM) | 50 µg/mL | 50 µg/mL | 2 | 7.24 µg/mL (≈ 22.3 µM) | 50 µg/mL | > 100 µg/mL | 100 µg/mL | 50 µg/mL | 100 µg/mL | 50 µg/mL | MIC [28]: 50 µg/mL |
